What is called IC50 is the concentration that inhibits the measured activity by half. A word on the pIC50: it is −log10 of the IC50, conventionally taken in molar units. One may read the pKd as the Kd on a negative log10 scale, so that one unit is a factor of ten.

Test [1] has as its target GSK3β (Glycogen synthase kinase-3 beta) (Homo sapiens, UniProt P49841). Nature of the test: Assay 6 - GSK3β assay (ThermoFisher Z-Lyte). It counts as biochemical. The conditions noted are these: geometric mean; ATP Conc: 10 μM; read-out: Assay 6 (GSK3β FRET-Z-Lyte CR) GMean IC50 (μM) ATP Conc: 10. In outline:
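Z-Lyte fluorescence kinase assay with 0.22-0.92 ng GSK3β and 2 μM Ser/Thr 09 peptide in 50 mM HEPES pH 7.5, 10 mM MgCl2, 1 mM EGTA, 0.01% BRIJ-35. Kinase reaction 60 min at room temperature, then 60 min development. 10-point 3-fold titration from 10 μM in 1% DMSO, fitted to a sigmoidal dose-response curve.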

Test [2] deals with T1, potassium ion channel hERG (human Ether-á-go-go-Related Gene) (Homo sapiens, UniProt Q12809).
T1 construct: expressed in transfected cells; host or cells: Chinese hamster ovary K1 (CHO)
T1 sequence (Q12809 whole entry): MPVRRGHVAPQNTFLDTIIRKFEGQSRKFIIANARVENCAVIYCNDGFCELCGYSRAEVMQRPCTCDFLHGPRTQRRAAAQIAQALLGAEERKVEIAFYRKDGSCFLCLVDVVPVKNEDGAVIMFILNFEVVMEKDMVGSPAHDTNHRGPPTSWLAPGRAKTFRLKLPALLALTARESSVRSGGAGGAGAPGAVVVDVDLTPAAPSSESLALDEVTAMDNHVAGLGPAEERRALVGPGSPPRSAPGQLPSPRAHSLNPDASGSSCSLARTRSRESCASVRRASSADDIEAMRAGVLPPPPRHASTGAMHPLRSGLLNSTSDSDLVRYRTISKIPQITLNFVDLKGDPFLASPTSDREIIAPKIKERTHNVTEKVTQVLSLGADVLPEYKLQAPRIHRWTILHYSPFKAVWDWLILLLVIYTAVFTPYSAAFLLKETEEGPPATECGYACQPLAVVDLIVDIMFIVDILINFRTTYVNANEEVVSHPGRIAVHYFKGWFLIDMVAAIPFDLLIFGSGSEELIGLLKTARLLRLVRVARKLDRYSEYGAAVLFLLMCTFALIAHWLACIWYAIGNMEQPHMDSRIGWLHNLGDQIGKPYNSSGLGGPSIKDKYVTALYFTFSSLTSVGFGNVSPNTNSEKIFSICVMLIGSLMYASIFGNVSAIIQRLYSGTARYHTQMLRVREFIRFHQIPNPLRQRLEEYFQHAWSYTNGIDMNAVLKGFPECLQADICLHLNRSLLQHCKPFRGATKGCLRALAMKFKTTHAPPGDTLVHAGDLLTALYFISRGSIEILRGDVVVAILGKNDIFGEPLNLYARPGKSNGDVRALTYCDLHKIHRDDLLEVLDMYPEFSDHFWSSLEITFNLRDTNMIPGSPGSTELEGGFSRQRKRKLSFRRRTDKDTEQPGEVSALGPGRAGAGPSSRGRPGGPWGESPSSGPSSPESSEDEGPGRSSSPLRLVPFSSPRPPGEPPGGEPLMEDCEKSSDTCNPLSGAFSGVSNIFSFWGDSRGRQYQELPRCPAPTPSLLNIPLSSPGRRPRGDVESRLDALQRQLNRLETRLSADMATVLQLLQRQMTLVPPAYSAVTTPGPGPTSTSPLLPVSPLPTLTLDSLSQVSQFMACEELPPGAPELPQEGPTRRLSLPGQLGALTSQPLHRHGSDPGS
Nature of the test: Assay 5 - hERG assay (SyncroPatch 384PE patch clamp, CHO cells). It is filed as cell-based. To be noted: geometric mean; CHO cells over-expressing hERG; read-out: Assay 5 (hERG Hu CHO IF EPh CR-Syncro) GMean IC50. In outline: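 Automated high-throughput patch clamp on CHO-K1 cells overexpressing hERG at room temperature, KF/KCl internal with escin, NMDG-containing external at pH 7.4. Six-point cumulative compound addition, 0.33% DMSO final; wells kept only with seal >30 MΩ, Z′ >0.4 and current >0.2 nA.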

Test [3] addresses T2, PCSK9 (Homo sapiens, UniProt Q8NBP7, G670E/V474I). In words: biochemical.
Test [4] concerns the target T3, human PCSK9 (Homo sapiens, UniProt Q8NBP7).
T3 construct: biotinylated human PCSK9 (31-692)-Avi-His6; His6 (C)
In words: Assay 2 - Biophysical human PCSK9 assay (SPR, Biacore). It is filed as binding. The conditions noted are these: geometric mean; SPR at 30° C; read-out: Assay 2 (PCSK9 BIAcore DBA CR) GMean Kd. How it is done:
Assay 2—Biophysical Human PCSK9 Assay
The SPR binding experiments were performed on a Biacore S200 optical biosensor unit at 30° C. A Series S Sensor Chip SA that is designed to bind biotinylated molecules for interaction analysis in Biacore systems was equilibrated at room temperature prior to use. The running buffer for protein tethering and subsequent ligand binding experiments was 10 mM HEPES pH 7.4, 150 mM NaCl, 0.05% (v/v) Tween 20 pH 7.4.
For the surface tethering of PCSK9, biotinylated human PCSK9 (31-692)-Avi-His6 at a concentration of 0.5 mg/mL was used. Prior to the surface tethering, the surface was exposed to a solution of 50 mM NaOH, 500 mM NaCl via 3 consecutive injections of this solution with a contact time of 60 s and a flowrate of 10 μL min^−1 to remove non-conjugated streptavidin. The PCSK9 protein was diluted to a concentration of 20 μg/mL using running buffer and injected with a contact time of 180-300 s and a flowrate of 10 μL min^−1 over a single flow channel (typically flow channel 2 or flow channel 4) with the aim to achieve protein capture levels of >5000 response units (RU). Remaining biotin binding sites were blocked via 2 consecutive injections of a 10 μM D-biotin solution in running buffer with a contact time of 60 s and a flowrate of 10 μL min^−1 over all flow-channels. Flow-channels 1 and 3 typically served as a reference surface throughout the subsequent binding experiments.
The binding experiments were all performed at a flow rate of 30 PL min^−1 and by employing the method of single-cycle kinetics. This approach involves the sequential injection of a compound concentration series without regeneration steps. A contact time between 90-150 s was selected, which was followed by a 40 min dissociation phase to allow for a proper estimation of the dissociation rate constant. Test compounds were delivered in DMSO at a concentration of 10 mM and a digital dispenser HP D300 was used to set up the compound concentration series using 6 concentrations. The tested concentrations have been 30, 100, 300, 1000, 3000 and 10000 nM. Prior to injecting any compound, the surfaces were equilibrated by injecting running buffer over them in three separate pulses. The data collection rate was set to 10 Hz.
The raw sensorgrams of the compound injections were first subjected to reference subtraction (subtracting the signal from flow channel 1 and/or 3 from the signal from channels 2 and/or 4 respectively) and then blank subtraction (subtracting the signal from injecting DMSO controls from the reference subtracted data). The resulting double-referenced sensorgrams were then fitted using a 1:1 binding interaction model using the manufactures software package to extract kinetic- and affinity data. Active compounds have been defined by creating a detectable binding signal at the highest compound concentration ([…]) of 3 RUs. Kinetic- and affinity data on active compounds are only provided for those compounds where the binding signal at the highest compound concentration ([…]) is 50% of the theoretical maximum binding signal for a 1:1 binding interaction (Rmax, typically between 15-20 RUs) in order to enable a proper fitting of the data.
(In general: SPR reads the build-up and loss of mass on a sensor chip optically.)

Test [5] has as its target T2, PCSK9. In words: Assay 3 - PCSK9 LDL-C uptake assay in HepG2 cells. Also on record: TEV cleavage site (C); His6 (C); host or cells: added to HepG2 cells (ATCC #HB-8065). It counts as cell-based. To be noted: 125 nM PCSK9, pHrodo Red-LDL, read-out: Assay 3 LDL uptake potency. Summed up: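 HepG2 cells seeded 24 h, then given compound (half-log series, top 10 μM) plus PCSK9 at 125 nM final for 24 h at 37 °C. pHrodo Red-LDL (6 μg/mL) added; uptake imaged at 4 h and 24 h. Signal normalized between DMSO and 100 nM evolocumab controls, four-parameter logistic fit.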

Each structure is given as a SMILES string. pEC50, pIC50, pKd: −log10 of the molar value. Some results are limits rather than exact numbers.

T3 sequence (Q8NBP7 31-692): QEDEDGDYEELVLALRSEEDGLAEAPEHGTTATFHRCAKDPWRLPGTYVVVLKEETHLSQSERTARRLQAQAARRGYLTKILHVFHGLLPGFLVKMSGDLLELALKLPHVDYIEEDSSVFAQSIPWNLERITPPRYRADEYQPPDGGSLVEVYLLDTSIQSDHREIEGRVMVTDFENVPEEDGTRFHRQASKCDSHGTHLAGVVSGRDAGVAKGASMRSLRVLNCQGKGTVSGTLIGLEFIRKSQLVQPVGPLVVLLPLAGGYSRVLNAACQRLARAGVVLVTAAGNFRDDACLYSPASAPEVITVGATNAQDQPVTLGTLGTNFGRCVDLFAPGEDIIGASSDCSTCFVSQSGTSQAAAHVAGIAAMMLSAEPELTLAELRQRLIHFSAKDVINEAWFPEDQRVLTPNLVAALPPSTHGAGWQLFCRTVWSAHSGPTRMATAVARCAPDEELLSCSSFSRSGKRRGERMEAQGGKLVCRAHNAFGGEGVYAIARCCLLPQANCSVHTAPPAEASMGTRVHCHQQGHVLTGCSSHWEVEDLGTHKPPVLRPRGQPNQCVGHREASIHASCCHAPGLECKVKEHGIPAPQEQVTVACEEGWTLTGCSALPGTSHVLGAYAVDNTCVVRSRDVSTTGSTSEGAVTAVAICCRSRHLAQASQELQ
Sequence of GSK3β (Glycogen synthase kinase-3 beta) (P49841 whole entry): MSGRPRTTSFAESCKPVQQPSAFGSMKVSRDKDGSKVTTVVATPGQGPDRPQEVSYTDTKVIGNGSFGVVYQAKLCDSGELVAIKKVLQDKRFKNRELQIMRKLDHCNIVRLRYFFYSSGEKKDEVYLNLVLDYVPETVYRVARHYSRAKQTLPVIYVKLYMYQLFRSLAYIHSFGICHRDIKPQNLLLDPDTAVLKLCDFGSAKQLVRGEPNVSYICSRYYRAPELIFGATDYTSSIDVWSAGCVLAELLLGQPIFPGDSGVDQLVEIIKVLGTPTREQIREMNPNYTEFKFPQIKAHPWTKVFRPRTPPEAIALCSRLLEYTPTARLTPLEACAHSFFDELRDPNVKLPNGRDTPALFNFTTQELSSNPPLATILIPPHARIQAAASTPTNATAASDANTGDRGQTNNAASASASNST
T2 sequence (Q8NBP7 with tags, fused parts or gaps V474I/G670E): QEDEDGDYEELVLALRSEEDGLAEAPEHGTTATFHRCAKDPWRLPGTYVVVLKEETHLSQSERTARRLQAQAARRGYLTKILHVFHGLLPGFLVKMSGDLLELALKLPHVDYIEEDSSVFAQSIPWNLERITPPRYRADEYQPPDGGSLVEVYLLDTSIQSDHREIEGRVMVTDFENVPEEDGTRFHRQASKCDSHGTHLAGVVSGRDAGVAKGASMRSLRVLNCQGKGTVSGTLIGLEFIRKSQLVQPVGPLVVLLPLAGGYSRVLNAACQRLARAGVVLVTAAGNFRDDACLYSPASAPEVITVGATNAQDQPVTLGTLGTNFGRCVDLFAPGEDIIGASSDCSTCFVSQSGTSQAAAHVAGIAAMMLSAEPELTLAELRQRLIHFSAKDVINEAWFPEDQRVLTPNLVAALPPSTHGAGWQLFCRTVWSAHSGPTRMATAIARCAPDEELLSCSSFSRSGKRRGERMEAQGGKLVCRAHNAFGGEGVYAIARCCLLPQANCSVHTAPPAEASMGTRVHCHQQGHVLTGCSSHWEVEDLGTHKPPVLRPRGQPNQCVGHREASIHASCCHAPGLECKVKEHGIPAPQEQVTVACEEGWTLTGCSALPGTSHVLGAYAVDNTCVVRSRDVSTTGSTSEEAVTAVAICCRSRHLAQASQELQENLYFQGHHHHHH

Regarding `COc1cccc2ncc(N[C@H]3CC[C@H](Nc4ccc(-n5ccccc5=O)cn4)C3)nc12` [Example 144, 6′-(((1S,3S)-3-((8-Methoxyquinoxalin-2-yl)amino)cyclopentyl)amino)-2H-[1,3′-bipyridin]-2-one], the half-maximal inhibitory concentration (IC50) in test [1] came out at 2.34 µM. For the same molecule, the negative logarithm of the IC50 (pIC50) was below 4.46 in test [2] and 6.32 in test [3]. The pKd in test [4] is 6.47.
The like results for `Cc1ncc(N[C@H]2CC[C@H](Nc3ccc(-n4cccc(C)c4=O)cn3)C2)nc1C` [Example 18, 6′-(((1S,3S)-3-((5,6-Dimethylpyrazin-2-yl)amino)cyclopentyl)amino)-3-methyl-2H-[1,3′-bipyridin]-2-one] were, in that order, above 10 µM, below 4.40, 7.77 and 7.85.
As to `Nc1ccc2ncc(N[C@H]3CC[C@H](Nc4ccc(-n5ccccc5=O)cn4)C3)nc2n1` [Example 146, 6′-(((1S,3S)-3-((6-Aminopyrido[2,3-b]pyrazin-3-yl)amino)cyclopentyl)amino)-2H-[1,3′-bipyridin]-2-one], the IC50 in test [1] was above 10 µM. In addition, the pIC50 was below 4.40 in test [2] and 5.83 in test [3]. Also, in test [4], the pKd was 5.82.
The like results for `O=C(O)[C@@H]1CCC(=O)N1c1ccc(N[C@H]2CC[C@H](Nc3cnc(OC(F)F)cn3)C2)nc1` [Example 79, (S)-1-(6-(((1S,3S)-3-((5-(Difluoromethoxy)pyrazin-2-yl)amino)cyclopentyl)amino)pyridin-3-yl)-5-oxopyrrolidine-2-carboxylic acid] were, in that order, above 10 µM, below 4.40, 6.08 and 6.37.
The like results for `O=c1ccccn1-c1ccc(N[C@H]2CC[C@H](Nc3cnc4c(F)cccc4n3)C2)nc1` [Example 145, 6′-(((1S,3S)-3-((5-Fluoroquinoxalin-2-yl)amino)cyclopentyl)amino)-2H-[1,3′-bipyridin]-2-one] were, in that order, above 10 µM, 4.73, 6.02 and 6.20.
`Cc1nc(N[C@H]2CC[C@H](Nc3ccc(-n4ccccc4=O)cn3)C2)cnc1C#N` [Example 1, 3-Methyl-5-(((1S,3S)-3-((2-oxo-2H-[1,3′-bipyridin]-6′-yl)amino)cyclopentyl)amino)pyrazine-2-carbonitrile]: the negative-log IC50 (pIC50) in test [2] is below 4.40; in test [3] it was 5.56. Further, the pKd in test [4] is 5.77.
The like results for `COc1cnc(N[C@H]2CC[C@H](Nc3ccc(-n4ccccc4=O)cn3)C2)cn1` [Example 140, 6′-(((1S,3S)-3-((5-Methoxypyrazin-2-yl)amino)cyclopentyl)amino)-2H-[1,3′-bipyridin]-2-one] were, in that order, below 4.40, 6.51 and 7.09.
The like results for `CC(=O)c1cnc(N[C@H]2CC[C@H](Nc3ccc(-n4ccccc4=O)cn3)C2)cn1` [Example 6, 6′-(((1S,3S)-3-((5-Acetylpyrazin-2-yl)amino)cyclopentyl)amino)-2H-[1,3′-bipyridin]-2-one] were, in that order, below 4.40, 5.93 and 6.06.
For `Cc1cnc(N[C@H]2CC[C@H](Nc3ccc(-n4c(=O)n(C)c5cc(C#N)ccc54)cn3)C2)cn1` [Example 216, 3-Methyl-1-(6-(((1S,3S)-3-((5-methylpyrazin-2-yl)amino)cyclopentyl)amino)pyridin-3-yl)-2-oxo-2,3-dihydro-1H-benzo[d]imidazole-5-carbonitrile], the half-maximal inhibitory concentration (IC50) in test [1] is above 10 µM. The pIC50 in test [2] was 5.14; in test [3] it was 8.55. In addition, in test [5], the pEC50 was 6.52.
The like results for `Cc1cnc(N[C@H]2CC[C@H](Nc3ccc(-n4cc(-c5cn[nH]c5)ccc4=O)cn3)C2)cn1` [Example 207, 6′-(((1S,3S)-3-((5-Methylpyrazin-2-yl)amino)cyclopentyl)amino)-5-(1H-pyrazol-4-yl)-2H-[1,3′-bipyridin]-2-one] were, in that order, above 10 µM, below 4.40, 8.07 and 6.40.
The like results for `Cn1c(=O)n(-c2ccc(N[C@H]3CC[C@H](Nc4cnc(OC(F)F)cn4)C3)nc2)c2ncccc21` [Example 96, 3-(6-(((1S,3S)-3-((5-(Difluoromethoxy)pyrazin-2-yl)amino)cyclopentyl)amino)pyridin-3-yl)-1-methyl-1,3-dihydro-2H-imidazo[4,5-b]pyridin-2-one] were, in that order, above 10 µM, 4.91, 8.14 and 6.15.
The like results for `Cc1cnc(N[C@H]2CC[C@H](Nc3ccc(-n4cc(-c5nnn[nH]5)ccc4=O)cn3)C2)cn1` [Example 177, 6′-(((1S,3S)-3-((5-Methylpyrazin-2-yl)amino)cyclopentyl)amino)-5-(1H-tetrazol-5-yl)-2H-[1,3′-bipyridin]-2-one] were, in that order, above 10 µM, below 4.40, 8.27 and 6.70.
Turning to `Cc1cnc(N[C@H]2CC[C@H](Nc3ccc(-n4cccc(OC(F)(F)F)c4=O)cn3)C2)cn1` [Example 148, 6′-(((1S,3S)-3-((5-Methylpyrazin-2-yl)amino)cyclopentyl)amino)-3-(trifluoromethoxy)-2H-[1,3′-bipyridin]-2-one], the IC50 in test [1] was above 10 µM. Moreover, the pIC50 in test [2] is below 4.40; in test [3] it was 8.10. For the same molecule, in test [5], the pEC50 was 6.70.
The like results for `Cc1ncc(N[C@H]2CC[C@H](Nc3ccc(-n4c(=O)n(C)c5ccccc54)cn3)C2)nc1C` [Example 11, 1-(6-(((1S,3S)-3-((5,6-Dimethylpyrazin-2-yl)amino)cyclopentyl)amino)pyridin-3-yl)-3-methyl-1,3-dihydro-2H-benzo[d]imidazol-2-one] were, in that order, above 10 µM, 4.69, 8.49 and 6.52.
The like results for `COc1cccn(-c2ccc(N[C@H]3CC[C@H](Nc4cnc(C)cn4)C3)nc2)c1=O` (racemic) [Example 170, rel-3-Methoxy-6′-(((1R,3R)-3-((5-methylpyrazin-2-yl)amino)cyclopentyl)amino)-2H-[1,3′-bipyridin]-2-one] were, in that order, 7 µM, below 4.40, 7.96 and 6.70.

Values taken from patent publication US20240217951A1, “PCSK9 INHIBITORS AND METHODS OF USE THEREOF” (AstraZeneca AB, priority 2022, published 2024).
